Experiments:
[1] = tested on: cell surface HaloTag-GFP expressed on HEK293T cells; assay: Live cell labeling experiment (confocal microscopy); format: cell-based; settings: 10 μM 21′, then 10 μM 22′ for 1 hour, fixed
Protocol: Live cell labeling by hydroamination was explored. HEK293T cells were transiently transfected with a cell surface HaloTag-GFP construct, treated with 10 μM HaloTag linker-conjugated difluoropropargyl ether 21′, washed, and incubated with 10 μM TAMRA-conjugated hydroxylamine 22′ for 1 hour. The cells were then fixed and visualized by confocal microscopy.
Cell Culture: HEK-293T cells were cultured in Dulbecco's Modified Eagle Medium (DMEM, Corning®) containing 10% fetal bovine serum (FBS, Sigma), 100 units/mL penicillin, and 0.1 mg/mL streptomycin (Sigma) in a humidified chamber at 37° C. with 5% CO2. Cells were passaged and dissociated with 0.25% trypsin, 0.1% EDTA in HBSS (Corning®). Cells tested negative for […] by the MycoAlert PLUS Mycoplasma Detection Kit (Lonza) following the manufacturer's protocol.
Preparation for 12-Well Plate: Coverslips (15 mm circle, thickness 0.13-0.17 mm) were acid-washed according to the Cold Spring Harbor protocol (Fischer et al., Cold Spring Harb. Protoc. 2008:pdb.prot4988 (2008)). A coverslip was added to each well in a 12-well plate followed by an aqueous solution of poly-D-lysine (0.1 mg/mL, 30-70 kDa, 800 μL). The plate was gently shaken to distribute the solution evenly, incubated at room temperature for 1 hour, washed using 1 mL of autoclaved deionized water for each well, and dried overnight. […]

[2] = Cross reactivity: hydroxylamine with trans-cyclooctene 19, aldehyde 20, cyclopropene 21, alkyne 22; format: physicochemical
Protocol: The reaction mixtures were analyzed by ^1H NMR spectroscopy.

[3] = Cross reactivity: hydroxylamine under Cu-catalyzed azide-alkyne cycloaddition (CuAAC) conditions; format: physicochemical; settings: alkyne S17, THPTA, CuSO4, sodium ascorbate, PBS pH 7.4, 0-4 hours, HPLC
Protocol: A solution of N,N-diethylhydroxylamine (0.8 μL, 100 mM in PBS, pH 7.4) was added to this mixture to bring the total volume to 200 μL. The solution was immediately transferred to a clean HPLC vial to monitor the reaction progress and incubated at room temperature in the dark. The reaction was analyzed by HPLC (Pursuit 200 Å C18, 4.6×150 mm, 10 μm particles, 1 mL/min flow rate, eluent: isocratic 0% MeCN/H2O+0.1% TFA (1 minute), gradient 0→100% MeCN/H2O+0.1% TFA (14 minutes), isocratic 100% MeCN/H2O+0.1% TFA (1 minute)) at each time point (0, 1, 2, and 4 hours) and quantified using its absorbance at 280 nm.

[4] = Cleavage reaction progress monitoring by 1H NMR spectroscopy; format: physicochemical; settings: 4 mM enamine N-oxide, 10 mM B2(OH)4, 10% DMSO-d6/23% CD3OD/d-PBS, pH 7.4
Text: Diboron reagents and enamine N-oxide structures in hand, the reaction kinetics were characterized and the substrate scope for the cleavage reaction was explored. A series of chromogenic probes 32″, 38″, 39″ featuring a representative series of nitrogen, oxygen, and sulfur-bearing leaving groups were obtained. Each probe was synthesized from cyclooct-2-ynol either by Mitsunobu reaction or carbamoylation with the corresponding p-nitro(thio)phenol or p-nitrophenyl isocyanate followed by hydroamination with N,N-diethylhydroxylamine. The formation of the intended products was verified by ^1H NMR spectroscopy with caffeine as an internal standard (FIG. 29A, FIG. 33, FIG. 34). […] Over the course of 24 h, iminium ion 35″ hydrolyzed to cyclooctenone 36″ and diethylamine 37″. The other substrates reacted analogously with the same quantitative formation of iminium ion 35″ at the initial time point (FIG. 29B). […]
The chromogenic probes that were prepared were intended for stopped flow kinetics experiments using UV-vis spectroscopy; however, the NMR studies precluded the use of one of these compounds for this purpose. […] Since a change in UV absorbance is contingent on p-nitroaniline formation, it could not be used or any analogous carbamate-based chromogenic or fluorogenic outputs as accurate proxies for product release. Instead, a fluorescence polarization assay was employed. […]

[5] = Retro-Cope elimination of linear alkynes 1′, 4′, 6′ with N,N-diethylhydroxylamine (Scheme 1); format: physicochemical; settings: with N,N-diethylhydroxylamine (2′)
Protocol: The impact of inductively withdrawing halogen and chalcogen substituents at the propargylic and terminal positions of the alkyne were evaluated. Retro-Cope elimination reaction between propargyl ether 1′ and N,N-diethylhydroxylamine (2′) was completed in 18 hours whereas hydroamination of terminal alkyne 4′ was incomplete, even after 10 days. […] The regioselectivities induced by the propargyl and terminal alkyne substituents appeared to be reinforcing.

[6] = tested on: MDA-MB-231 HER2− breast cancer cells; assay: Cell viability assay (CellTiter-Glo), MDA-MB-231; format: cell-based; settings: Homo sapiens, MDA-MB-231, 96 h, read-out: IC50, cell viability, without diboron
Protocol: SK-BR-3 cells were treated with […]-100 nM trastuzumab-MMAE 61″ in the presence or absence of 50 μM B2pin2, cultured for 72 h, and assayed using the CellTiter-Glo® cell viability assay. The IC50 of the ADC was insensitive to the presence or absence of diboron and recapitulated the IC50 of MMAE alone.
This N-oxide-based drug delivery platform provides a convenient mechanism for loading drugs onto antibodies as well as an appealing alternative to existing methods for the fast and complete release of drug molecules from their carriers.
Cell culture: Cells were cultured in RPMI (SK-BR-3) or DMEM (MDA-MB-231) containing 10% FBS (Sigma), 100 units/mL penicillin, and 0.1 mg/mL streptomycin (Sigma) in a humidified chamber at 37° C. under an ambient atmosphere with 5% CO2. Cells were passaged and dissociated with 0.25% trypsin, 0.1% EDTA in HBSS (Corning). […]
Cell viability assay: SK-BR-3 or MDA-MB-231 cell were seeded at a density of 5,000-10,000 cells per well in media [100 μL, RPMI (SK-BR-3) or DMEM (MDA-MB-231) supplemented with 5% heat-inactivated human serum (Sigma), penicillin (100 units/mL), streptomycin (0.1 mg/mL)] in an opaque 96-well plate. […] The plates were incubated at room temperature for 10 min to stabilize the luminescence signal and analyzed by a microplate reader (Clariostar Plus, BMG Labtech) (FIG. 48 and FIG. 49).

[7] = tested on: SK-BR-3 HER2+ breast cancer cells; assay: Cell viability assay (CellTiter-Glo), SK-BR-3; format: cell-based; settings: Homo sapiens, SK-BR-3, 72 h, read-out: IC50, cell viability, without diboron
Protocol: Cell viability assay: SK-BR-3 or MDA-MB-231 cell were seeded at a density of 5,000-10,000 cells per well in media [100 μL, RPMI (SK-BR-3) or DMEM (MDA-MB-231) supplemented with 5% heat-inactivated human serum (Sigma), penicillin (100 units/mL), streptomycin (0.1 mg/mL)] in an opaque 96-well plate. PBS (100 μL) was added to the edge wells. The cells were incubated at 37° C. under ambient atmosphere with 5% CO2. […] The plates were incubated at 37° C. with 5% CO2 for 72 h (SK-BR-3) or 96 h (MDA-MB-231). After the plates were equilibrated at room temperature, CellTiter-Glo™ 2.0 reagent (50 μL, Promega™) was added to each well and mixed gently. The plates were incubated at room temperature for 10 min to stabilize the luminescence signal and analyzed by a microplate reader (Clariostar Plus, BMG Labtech) (FIG. 48 and FIG. 49).

[8] = molecular target: T1, lysozyme-TAMRA conjugate 6″conj (Gallus gallus, UniProt P00698); assay: Screening of diboron derivatives 27″-31″ for cleavage of conjugate 6″conj; format: biochemical; settings: PBS, 1 h
T1 construct: purchased
T1 sequence (P00698 19-147): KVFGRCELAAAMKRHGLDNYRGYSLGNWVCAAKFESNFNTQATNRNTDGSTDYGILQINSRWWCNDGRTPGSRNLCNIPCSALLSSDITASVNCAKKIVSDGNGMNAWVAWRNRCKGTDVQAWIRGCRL
Protocol: The impact of boron ligands on the dissociation reaction was also explored. […] Lysozyme-TAMRA conjugate 6″conj was treated with 5 or 50 μM of each diboron reagent in PBS and analyzed by in-gel fluorescence after 1 h.
A solution of diborons 27″-31″ (0.34 μL, 125 μM or 1.25 mM in DMSO; 5 or 50 μM final concentration) was added to a solution of lysozyme-fluorophore conjugate 6″conj (8 μL, 0.50 μM in PBS, pH 7.4). The reaction mixtures were incubated at room temperature in the dark. After 60 min, each reaction mixture was quenched by adding trimethylamine N-oxide (0.93 uL, 100 mM in H2O; 10 mM final concentration) and diluted with 1.6×SDS sample buffer (14.32 μL). Each solution (10 μL) was loaded onto a 15-well 12% SDS-PAGE gel. The gel was run at room temperature and at 175 V for 50 min. In-gel fluorescence was imaged with a Typhoon™ FLA 9500 (GE) at 532 nm with a photomultiplier tube (PMT) setting of 500 V (FIG. 41).

## O=C(NCCOCCOCCCCCCCl)OCCOC(F)(F)C#CCl [21′, 2-((3-chloro-1,1-difluoroprop-2-yn-1-yl)oxy)ethyl (2-(2-((6-chlorohexyl)oxy)ethoxy)ethyl)carbamate]
[1]
  live cell labeling (TAMRA signal): localized at the cell surface and co-localized with the GFP signal of transfected cells

## CCN(O)CC [compound 1, N,N-diethylhydroxylamine]
[2]; 5 mM hydroxylamine with 5 mM cyclopropene 21 or trans-cyclooctene 19, d3-acetonitrile
  reactivity with strained alkenes: proved unreactive
[2]; CD3CN, 1 hour, room temperature, 1H NMR
  cross-reactivity with 19, 20, 21 or 22: No change in the spectra was observed
[3]
  reaction under CuAAC conditions: No reaction was observed

## CC[N+]([O-])(CC)/C1=C/C(Sc2ccc([N+](=O)[O-])cc2)CCCCC1 (stereo not shown) [38″, (E)-N,N-Diethyl-3-((4-nitrophenyl)thio)cyclooct-1-en-1-amine oxide]
[4]
  time to complete reduction / conversion of enamine N-oxide: ≤ 4 min

## CC[N+]([O-])(CC)/C1=C/C(Oc2ccc([N+](=O)[O-])cc2)CCCCC1 (stereo not shown) [32″, (E)-N,N-Diethyl-3-(4-nitrophenoxy)cyclooct-1-en-1-amine oxide]
[4]
  time to complete reduction / conversion of enamine N-oxide: ≤ 4 min

## OCCCCCC#CCl [6′, 7-chlorohept-6-yn-1-ol]
[5]
  time to completion of retro-Cope elimination: ~24 h

## CC[C@H](C)[C@@H]([C@@H](CC(=O)N1CCCC1[C@H](OC)[C@@H](C)C(=O)N[C@H](C)[C@@H](O)c1ccccc1)OC)N(C)C(=O)[C@@H](NC(=O)[C@@H](NC)C(C)C)C(C)C (stereo partly shown) [MMAE, monomethyl auristatin E]
[6]
  IC50: 0.75 nM
[7]
  IC50: 0.154 nM

## OB(O)B(O)O [Tetrahydroxydiboron, tetrahydroxydiboron]
[8]
  cleavage of 6″conj at 5 μM diboron reagent: reach completion by 1 h
